These results are taken from US6670345B1 (Dabur Research Foundation, priority 1997, dated 2003).

In brackets after ≈: the same amount, converted by molar mass.

What all share (settings): 72 hours
The subject of one assay is human larynx (HeP.2). Nature of the assay: MTT cytotoxicity assay, human larynx (HeP.2). It counts as cell-based. As for the experimental part:
(§1) After 72 hours, the assay was terminated and percent cyotoxicities calculated.

Assay [1] deals with ovarian cancer cells (PA-1). Nature of the assay: MTT cytotoxicity assay, ovarian cancer cells (PA-1). It counts as cell-based, human. As for the experimental part:
as §1
(In general: Tetrazolium assays rely on reduction of a dye to a coloured formazan, in cell work by metabolically active cells.)

For another assay, the system named is lymphoma cells (U937). Nature of the assay: MTT cytotoxicity assay, lymphoma cells (U937). The format is cell-based, human. As for the experimental part:
as §1

In a further assay the test system is human lung (L132). Nature of the assay: MTT cytotoxicity assay, human lung (L132). The format is cell-based. As for the experimental part: as §1
The next assay relates to human prostate (DU145). Nature of the assay: MTT cytotoxicity assay, human prostate (DU145). The format is cell-based. As for the experimental part: as §1
Another assay deals with human colon (HT29). Nature of the assay: MTT cytotoxicity assay, human colon (HT29). The format is cell-based. As for the experimental part: as §1
The test system of a further assay is leukemia cells (MOLT-4). Nature of the assay: MTT cytotoxicity assay, leukemia cells (MOLT-4). It counts as cell-based, human. On the procedure:
as §1

With `CC(C)C1CCC2(C(=O)O)CCC3(C)C(CCC4C5(C)CCC(NC(=O)CCl)C(C)(C)C5CCC43C)C12` (centres unmarked) [Derivative 1022], in the assay with human larynx (HeP.2), the “ED50 Larynx Hep. 2” value worked out at 3.5 µg/mL (≈ 6.55 µM). Also, the “ED50 Ovary PA-I” value in assay [1] amounted to 0.6 µg/mL (≈ 1.12 µM). The “ED50 Lymphoma U937” value in the assay with lymphoma cells (U937) worked out at 5.5 µg/mL (≈ 10.3 µM). In addition, in the assay on human lung (L132), the “ED50 Lung L 132” value worked out at 4.7 µg/mL (≈ 8.8 µM). Besides, the “ED50 Prostate DU 145” value in the assay on human prostate (DU145) is above 10 µg/mL. Further, the “ED50 Colon HT-29” value with human colon (HT29) is above 10 µg/mL. Besides, the “ED50 Leukemia MOLT-4” value in the assay on leukemia cells (MOLT-4) was 1.8 µg/mL (≈ 3.37 µM).

For `COC(=O)COC(=O)C12CCC(C(C)C)C1C1CCC3C4(C)CCC(NC(C)=O)C(C)(C)C4CCC3(C)C1(C)CC2` (centres unmarked) [Derivative 1025], in the assay on human larynx (HeP.2), the “ED50 Larynx Hep. 2” value is above 10 µg/mL. Moreover, the “ED50 Ovary PA-I” value in assay [1] is above 4.0 µg/mL. For the same compound, the “ED50 Lymphoma U937” value in the assay with lymphoma cells (U937) is above 10 µg/mL. For the same compound, in the assay on human lung (L132), the “ED50 Lung L 132” value amounted to 3.2 µg/mL (≈ 5.6 µM). Further, the “ED50 Prostate DU 145” value with human prostate (DU145) is above 4 µg/mL. Besides, in the assay on human colon (HT29), the “ED50 Colon HT-29” value is above 10 µg/mL. The “ED50 Leukemia MOLT-4” value in the assay on leukemia cells (MOLT-4) turned out to be 1.0 µg/mL (≈ 1.75 µM).

For `C=C(C)C1CCC2(C(=O)O)CCC3(C)C(CCC4C5(C)CCC(OS(C)(=O)=O)C(C)(C)C5CCC43C)C12` (centres unmarked) [Derivative 751], the “ED50 Larynx Hep. 2” value in the assay on human larynx (HeP.2) turned out to be 7.0 µg/mL (≈ 13.1 µM). Moreover, the “ED50 Lymphoma U937” value in the assay on lymphoma cells (U937) was above 4 µg/mL. The “ED50 Lung L 132” value in the assay with human lung (L132) was 5 µg/mL (≈ 9.35 µM). Further, the “ED50 Prostate DU 145” value in the assay with human prostate (DU145) was above 10 µg/mL. Moreover, the “ED50 Leukemia MOLT-4” value in the assay on leukemia cells (MOLT-4) amounted to 0.65 µg/mL (≈ 1.22 µM).

With `CC(C)C1CCC2(C(=O)O)CCC3(C)C(CCC4C5(C)CCC(OC(=O)c6cccc(C(F)(F)F)c6)C(C)(C)C5CCC43C)C12` (centres unmarked) [Derivative 940], the “ED50 Larynx Hep. 2” value with human larynx (HeP.2) stood at 5.4 µg/mL (≈ 8.56 µM). Besides, the “ED50 Ovary PA-I” value in assay [1] came out at 3.8 µg/mL (≈ 6.02 µM). In addition, the “ED50 Lymphoma U937” value in the assay on lymphoma cells (U937) turned out to be 0.8 µg/mL (≈ 1.27 µM). Moreover, the “ED50 Lung L 132” value with human lung (L132) is 2.6 µg/mL (≈ 4.12 µM). Besides, the “ED50 Prostate DU 145” value in the assay with human prostate (DU145) was above 4 µg/mL. For the same compound, the “ED50 Colon HT-29” value with human colon (HT29) was above 10 µg/mL. For the same compound, in the assay on leukemia cells (MOLT-4), the “ED50 Leukemia MOLT-4” value stood at 0.4 µg/mL (≈ 0.634 µM).

In the case of `CC(C)C1CCC2(C(=O)O)CCC3(C)C(CCC4C5(C)CCC(=NNC(=O)c6ccccc6)C(C)(C)C5CCC43C)C12` (centres unmarked) [Derivative 807], the “ED50 Larynx Hep. 2” value with human larynx (HeP.2) worked out at 4.0 µg/mL (≈ 6.96 µM). Also, in assay [1], the “ED50 Ovary PA-I” value amounted to 1.7 µg/mL (≈ 2.96 µM). Besides, the “ED50 Lung L 132” value with human lung (L132) was below 0.5 µg/mL. In the assay on human prostate (DU145), the “ED50 Prostate DU 145” value was above 10 µg/mL. In addition, in the assay with leukemia cells (MOLT-4), the “ED50 Leukemia MOLT-4” value was 1.0 µg/mL (≈ 1.74 µM).

Consider `CC(C)C1CCC2(C(=O)O)CCC3(C)C(CCC4C5(C)CCC(OC(=O)c6ccc(F)cc6F)C(C)(C)C5CCC43C)C12` (centres unmarked) [Derivative 937], for which the “ED50 Larynx Hep. 2” value with human larynx (HeP.2) turned out to be 5.9 µg/mL (≈ 9.85 µM). Moreover, the “ED50 Ovary PA-I” value in assay [1] worked out at 1.6 µg/mL (≈ 2.67 µM). In addition, the “ED50 Lymphoma U937” value in the assay on lymphoma cells (U937) is 1.2 µg/mL (≈ 2 µM). Moreover, in the assay with human lung (L132), the “ED50 Lung L 132” value is 1.1 µg/mL (≈ 1.84 µM). The “ED50 Prostate DU 145” value with human prostate (DU145) amounted to 2.5 µg/mL (≈ 4.17 µM). The “ED50 Colon HT-29” value in the assay with human colon (HT29) stood at 1.7 µg/mL (≈ 2.84 µM). Besides, the “ED50 Leukemia MOLT-4” value with leukemia cells (MOLT-4) was determined as 0.9 µg/mL (≈ 1.5 µM).

As to `C=CC(=O)OC(=O)C12CCC(C(=C)C)C1C1CCC3C4(C)CCC(O)C(C)(C)C4CCC3(C)C1(C)CC2` (centres unmarked) [Derivative 1101], the “ED50 Larynx Hep. 2” value in the assay on human larynx (HeP.2) was 1.6 µg/mL (≈ 3.13 µM). Moreover, the “ED50 Ovary PA-I” value in assay [1] came out at 3.5 µg/mL (≈ 6.85 µM). Also, the “ED50 Lymphoma U937” value in the assay with lymphoma cells (U937) stood at 1.2 µg/mL (≈ 2.35 µM). Besides, the “ED50 Lung L 132” value in the assay on human lung (L132) amounted to 1.7 µg/mL (≈ 3.33 µM). Besides, in the assay with human prostate (DU145), the “ED50 Prostate DU 145” value is above 10 µg/mL. Besides, the “ED50 Colon HT-29” value in the assay with human colon (HT29) was above 10 µg/mL. In the assay on leukemia cells (MOLT-4), the “ED50 Leukemia MOLT-4” value was determined as 1.9 µg/mL (≈ 3.72 µM).

Regarding `C=C(C)C1CCC2(C(=O)O)CCC3(C)C(CCC4C5(C)CCC(OC(=O)c6cc(F)cc(F)c6)C(C)(C)C5CCC43C)C12` (centres unmarked) [Derivative 935], the “ED50 Larynx Hep. 2” value in the assay on human larynx (HeP.2) was above 10 µg/mL. In addition, the “ED50 Lymphoma U937” value in the assay on lymphoma cells (U937) was found to be 2.6 µg/mL (≈ 4.36 µM). Further, the “ED50 Lung L 132” value in the assay on human lung (L132) was 1.2 µg/mL (≈ 2.01 µM). For the same compound, the “ED50 Prostate DU 145” value in the assay on human prostate (DU145) came out at 3.2 µg/mL (≈ 5.36 µM). The “ED50 Colon HT-29” value with human colon (HT29) is above 10 µg/mL. In addition, the “ED50 Leukemia MOLT-4” value in the assay with leukemia cells (MOLT-4) worked out at 0.6 µg/mL (≈ 1.01 µM).

On to `C=C(C)C1CCC2(C(=O)O)CCC3(C)C(CCC4C5(C)CCC(OC(=O)c6cccc(C(F)(F)F)c6)C(C)(C)C5CCC43C)C12` (centres unmarked) [Derivative 939], for which the “ED50 Larynx Hep. 2” value in the assay with human larynx (HeP.2) is 4.0 µg/mL (≈ 6.36 µM). In assay [1], the “ED50 Ovary PA-I” value was above 4.0 µg/mL. Further, in the assay with lymphoma cells (U937), the “ED50 Lymphoma U937” value is 5.7 µg/mL (≈ 9.06 µM). Also, the “ED50 Lung L 132” value in the assay on human lung (L132) came out at 2.7 µg/mL (≈ 4.29 µM). Further, the “ED50 Prostate DU 145” value in the assay on human prostate (DU145) is above 10 µg/mL. Also, the “ED50 Colon HT-29” value with human colon (HT29) was above 10 µg/mL. Moreover, the “ED50 Leukemia MOLT-4” value with leukemia cells (MOLT-4) was determined as 1.4 µg/mL (≈ 2.23 µM).

On to `C=C(C)C1CCC2(C(=O)O)CCC3(C)C(CCC4C5(C)CCC(OC(=O)c6ccccc6C(F)(F)F)C(C)(C)C5CCC43C)C12` (centres unmarked) [Derivative 942], for which the “ED50 Larynx Hep. 2” value in the assay on human larynx (HeP.2) stood at 10.0 µg/mL (≈ 15.9 µM). Besides, in assay [1], the “ED50 Ovary PA-I” value was above 4.0 µg/mL. In the assay with lymphoma cells (U937), the “ED50 Lymphoma U937” value was determined as 2.2 µg/mL (≈ 3.5 µM). Also, in the assay with human lung (L132), the “ED50 Lung L 132” value was 4.0 µg/mL (≈ 6.36 µM). Moreover, in the assay on human prostate (DU145), the “ED50 Prostate DU 145” value is above 10 µg/mL. Further, the “ED50 Colon HT-29” value in the assay with human colon (HT29) is above 10 µg/mL. In the assay on leukemia cells (MOLT-4), the “ED50 Leukemia MOLT-4” value was found to be 0.5 µg/mL (≈ 0.795 µM).
